Legend:
SHP2^E76A protein = SHP2^E76A protein (Homo sapiens (Human), UniProt Q06124, E76A); assay: SHP2 enzyme activity inhibition experiment; type: biochemical; conditions: SHP2 enzyme activity, Tables 1.1 and 1.2; read-out: IC50
Description: Compound powders were dissolved in DMSO to prepare mother liquor.
During the experiment, the stock solutions of the compounds were subjected to 3-fold gradient dilution with DMSO, and 10 different test concentrations of each compound were set. […] The protein used was the activated protein SHP^2E76A with amino acid mutation at position 76 of the protein, and the substrate used was DiFMUP (Invitrogen, E12020). […] 50 µL of enzyme solution was added to the detection wells, followed by 50 µL of substrate. […] GraphPad Prism 5 was used for nonlinear regression analysis, and the curve of enzyme activity versus compound concentration was fitted by the equation Y=Bottom+(Top-Bottom)/(1+10^((Log IC50−X)*HillSlope)) to calculate the IC50 value of each compound.

MOLM-13 cells = assay: MOLM-13 cell proliferation experiment; type: cell-based; conditions: Homo sapiens, MOLM-13, 72 h, MOLM-13 cell proliferation, 3 days, Tables 3.1 and 3.2; read-out: IC50
Description: After 3 days, 5 µL of CellTiter-Glo reagent (Promega, ZG7572) was added to each well, and the plates were kept at room temperature in the dark for 10 minutes. The […] was detected by Spectra max i3 (Molecular Devices). The relative growth rate of the treated cells was compared with that of DMSO control.

Sequence of SHP2^E76A protein (Q06124 whole entry E76A): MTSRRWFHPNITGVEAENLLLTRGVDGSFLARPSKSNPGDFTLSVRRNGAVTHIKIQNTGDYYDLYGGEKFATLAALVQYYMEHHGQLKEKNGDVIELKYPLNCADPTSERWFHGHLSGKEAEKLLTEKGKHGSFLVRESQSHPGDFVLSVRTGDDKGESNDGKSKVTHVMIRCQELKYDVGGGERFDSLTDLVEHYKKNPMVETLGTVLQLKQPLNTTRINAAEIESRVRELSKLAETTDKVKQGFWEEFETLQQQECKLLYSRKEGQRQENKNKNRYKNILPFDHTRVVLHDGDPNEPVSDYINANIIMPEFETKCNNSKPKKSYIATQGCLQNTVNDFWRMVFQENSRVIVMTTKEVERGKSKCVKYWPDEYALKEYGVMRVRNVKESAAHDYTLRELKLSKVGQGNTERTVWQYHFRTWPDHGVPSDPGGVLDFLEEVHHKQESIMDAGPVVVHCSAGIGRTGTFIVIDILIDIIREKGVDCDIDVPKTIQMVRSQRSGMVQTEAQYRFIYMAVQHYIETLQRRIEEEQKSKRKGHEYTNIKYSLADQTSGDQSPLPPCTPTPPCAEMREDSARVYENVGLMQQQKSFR

| Structure (SMILES) | IC50 (SHP2^E76A protein) | IC50 (MOLM-13 cells) |
| --- | --- | --- |
| NC1CCCN(c2ncc(Sc3cccc(Cl)c3Cl)c3ncnn23)CC1 (stereo not shown) [1-(8-((2,3-dichlorophenyl)thio)-[1,2,4]triazolo[1,5-c]pyrimidin-5-yl)azepan-4-amine] | 100 to 1000 nM | 1000 to 10000 nM |
| N[C@@H]1COCC12CCN(c1ncc(Sc3cccc(Cl)c3Cl)c3nccn13)CC2 [(S)-8-(8-((2,3-dichlorophenyl)thio)imidazo[1,2-c]pyrimidin-5-yl)-2-oxa-8-azaspiro[4.5]decan-4-amine] | < 100 nM | 100 to 1000 nM |
| CC1C[C@@H](N)C2(CCN(c3ncc(Sc4ccnc(N)c4Cl)c4nncn34)CC2)C1 (stereo partly drawn) [(1R)-8-(8-((2-amino-3-chloropyridin-4-yl)thio)-[1,2,4]triazolo[4,3-c]pyrimidin-5-yl)-3-methyl-8-azaspiro[4.5]decan-1-amine] | < 100 nM | 100 to 1000 nM |
| Cc1ncccc1Sc1cnc(N2CCC3(CCC[C@H]3N)CC2)n2ccnc12 | – | 100 to 1000 nM |
| C[C@@H]1OCC2(CCN(c3ncc(Sc4cc(N)ncc4Cl)c4nccn34)CC2)[C@@H]1N [listing 1 of 2 here] | – | 100 to 1000 nM |
| Cc1nccc(Sc2cnc(N3CCC4(CC3)CO[C@@H](C)[C@H]4N)n3ncnc23)c1Cl [(3S,4S)-8-(8-((3-chloro-2-methylpyridin-4-yl)thio)-[1,2,4]triazolo[1,5-c]pyrimidin-5-yl)-3-methyl-2-oxa-8-azaspiro[4.5]decan-4-amine] | 100 to 1000 nM | 1000 to 10000 nM |
| N[C@@H]1CCCC12CCN(c1ncc(Sc3ccc(Cl)cc3Cl)c3nncn13)CC2 [(R)-8-(8-((2,4-dichlorophenyl)thio)-[1,2,4]triazolo[4,3-c]pyrimidin-5-yl)-8-azaspiro[4.5]decan-1-amine] | 100 to 1000 nM | 1000 to 10000 nM |
| N[C@@H]1CCCC12CCN(c1ncc(Sc3cccc(Cl)c3Cl)c3nncn13)CC2 [(R)-8-(8-((2,3-dichlorophenyl)thio)-[1,2,4]triazolo[4,3-c]pyrimidin-5-yl)-8-azaspiro[4.5]decan-1-amine] | < 100 nM | 100 to 1000 nM |
| N[C@@H]1CCCC12CCN(c1ncc(Sc3cccnc3Cl)c3ncnn13)CC2 | 100 to 1000 nM | 1000 to 10000 nM |
| CN(C)C(=O)C(=O)Nc1cccc(Sc2cnc(N3CCC4(CCC[C@H]4N)CC3)n3ccnc23)c1Cl [listing 1 of 2 here] | – | 100 to 1000 nM |
| C[C@@H]1OCC2(CCN(c3ncc(Sc4cc(N)ncc4Cl)c4nncn34)CC2)[C@@H]1N | < 100 nM | 1000 to 10000 nM |
| N[C@@H]1COCC12CCN(c1ncc(Sc3ccnc(Cl)c3Cl)c3nncn13)CC2 [(S)-8-(8-((2,3-dichloropyridin-4-yl)thio)-[1,2,4]triazolo[4,3-c]pyrimidin-5-yl)-2-oxa-8-azaspiro[4.5]decan-4-amine] | 100 to 1000 nM | 100 to 1000 nM |
| CC1C[C@@H](N)C2(CCN(c3ncc(Sc4ccnc(Cl)c4Cl)c4nncn34)CC2)C1 (stereo partly drawn) [(1R)-8-(8-((2,3-dichloropyridin-4-yl)thio)-[1,2,4]triazolo[4,3-c]pyrimidin-5-yl)-3-methyl-8-azaspiro[4.5]decan-1-amine] | < 100 nM | 100 to 1000 nM |
| C[C@@H]1OCC2(CCN(c3ncc(Sc4cc(N)nc(Cl)c4Cl)c4nncn34)CC2)[C@@H]1N [(3S,4S)-8-(8-((6-amino-2,3-dichloropyridin-4-yl)thio)-[1,2,4]triazolo[4,3-c]pyrimidin-5-yl)-3-methyl-2-oxa-8-azaspiro[4.5]decan-4-amine] | < 100 nM | 100 to 1000 nM |
| N[C@@H]1CCCC12CCN(c1ncc(Sc3cccc(NC(=O)c4c(O)nc5n(c4=O)CCCC5)c3Cl)c3nccn13)CC2 [(R)-N-(3-((5-(1-amino-8-azaspiro[4.5]decan-8-yl)imidazo[1,2-c]pyrimidin-8-yl)thio)-2-chlorophenyl)-2-hydroxy-4-oxo-6,7,8,9-tetrahydro-4H-pyrido[1,2-a]pyrimidin-3-carboxamide] | 100 to 1000 nM | 100 to 1000 nM |
| COc1ccccc1Sc1cnc(N2CCC3(CCC[C@H]3N)CC2)n2ncnc12 | – | 1000 to 10000 nM |
| COc1ccccc1Sc1cnc(N2CCC3(CCC[C@H]3N)CC2)n2ncnc12 [(R)-8-(8-((2-methoxyphenyl)thio)-[1,2,4]triazolo[1,5-c]pyrimidin-5-yl)-8-azaspiro[4.5]decan-1-amine] | 100 to 1000 nM | – |
| CC(=O)Nc1ccc(Sc2cnc(N3CCC4(CCC[C@H]4N)CC3)n3cnnc23)cc1 [(R)-N-(4-((5-(1-amino-8-azaspiro[4.5]decan-8-yl)-[1,2,4]triazolo[4,3-c]pyrimidin-8-yl)thio)phenyl)acetamide] | 1000 to 10000 nM | – |
| N[C@@H]1CCCC12CCN(c1ncc(Sc3cccc4c3C(=O)C(=O)N4)c3nccn13)CC2 | 100 to 1000 nM | – |
| C[C@H]1OCC2(CCN(c3ncc(Sc4cccc(Cl)c4Cl)c4ncnn34)CC2)[C@@H]1N [(3R,4S)-8-(8-((2,3-dichlorophenyl)thio)-[1,2,4]triazolo[1,5-c]pyrimidin-5-yl)-3-methyl-2-oxa-8-azaspiro[4.5]decan-4-amine] | 100 to 1000 nM | – |

| Structure (SMILES) | IC50 (SHP2^E76A protein) | IC50 (MOLM-13 cells) |
| --- | --- | --- |
| Cc1ncccc1Sc1cnc(N2CCC3(CCC[C@H]3N)CC2)n2ncnc12 | 1000 to 10000 nM | – |
| Cc1nccc(Sc2cnc(N3CCC4(CC3)CO[C@H](C)[C@H]4N)n3cnnc23)c1Cl [(3R,4S)-8-(8-((3-chloro-2-methylpyridin-4-yl)thio)-[1,2,4]triazolo[4,3-c]pyrimidin-5-yl)-3-methyl-2-oxa-8-azaspiro[4.5]decan-4-amine] | < 100 nM | – |
| N[C@H]1CCC12CCN(c1ncc(Sc3cccc(Cl)c3Cl)c3nncn13)CC2 [(S)-7-(8-((2,3-dichlorophenyl)thio)-[1,2,4]triazolo[4,3-c]pyrimidin-5-yl)-7-azaspiro[3.5]nonan-1-amine] | 1000 to 10000 nM | – |
| Cc1ncccc1Sc1cnc(N2CCC3(CCC[C@H]3N)CC2)n2cnnc12 | – | 1000 to 10000 nM |
| COC(=O)c1ccccc1Sc1cnc(N2CCC3(CCC[C@H]3N)CC2)n2cnnc12 [Methyl (R)-2-((5-(1-amino-8-azaspiro[4.5]decan-8-yl)-[1,2,4]triazolo[4,3-c]pyrimidin-8-yl)thio)benzoate] | 1000 to 10000 nM | – |
| NC1CC2(CCN(c3ncc(Sc4cccc(Cl)c4Cl)c4nccn34)CC2)C1 [7-(8-((2,3-dichlorophenyl)thio)imidazo[1,2-c]pyrimidin-5-yl)-7-azaspiro[3.5]nonan-2-amine] | 100 to 1000 nM | – |
| NCC1CCN(c2ncc(Sc3cccc(Cl)c3Cl)c3nccn23)CC1 [(1-(8-((2,3-dichlorophenyl)thio)imidazo[1,2-c]pyrimidin-5-yl)piperidin-4-yl)methanamine] | 100 to 1000 nM | – |
| C[C@@H]1OCC2(CCN(c3ncc(Sc4cc(N)ncc4Cl)c4nccn34)CC2)[C@@H]1N [listing 2 of 2 here] | < 100 nM | – |
| CC1(N)COCC12CCN(c1ncc(Sc3cccc(Cl)c3Cl)c3nncn13)CC2 (stereo not shown) [8-(8-((2,3-dichlorophenyl)thio)-[1,2,4]triazolo[4,3-c]pyrimidin-5-yl)-4-methyl-2-oxa-8-azaspiro[4.5]decan-4-amine] | 1000 to 10000 nM | – |
| Cc1nccc(Sc2cnc(N3CCC4(CC3)COC[C@H]4N)n3ncnc23)c1Cl [(S)-8-(8-((3-chloro-2-methylpyridin-4-yl)thio)-[1,2,4]triazolo[1,5-c]pyrimidin-5-yl)-2-oxa-8-azaspiro[4.5]decan-4-amine] | 1000 to 10000 nM | – |
| Cc1nccc(Sc2cnc(N3CCC4(CC3)COC[C@H]4N)n3cnnc23)c1Cl [(S)-8-(8-((3-chloro-2-methylpyridin-4-yl)thio)-[1,2,4]triazolo[4,3-c]pyrimidin-5-yl)-2-oxa-8-azaspiro[4.5]decan-4-amine] | – | 100 to 1000 nM |
| Nc1cc(Sc2cnc(N3CCC4(CCC[C@H]4N)CC3)n3cnnc23)c(Cl)cn1 [(R)-8-(8-((2-amino-5-chloropyridin-4-yl)thio)-[1,2,4]triazolo[4,3-c]pyrimidin-5-yl)-8-azaspiro[4.5]decan-1-amine] | 1000 to 10000 nM | – |
| Cc1ncccc1Sc1cnc(N2CCC3(CCC[C@H]3N)CC2)n2cnnc12 [(R)-8-(8-((2-methylpyridin-3-yl)thio)-[1,2,4]triazolo[4,3-c]pyrimidin-5-yl)-8-azaspiro[4.5]decan-1-amine] | 100 to 1000 nM | – |
| CC1(N)CCN(c2ncc(Sc3ccnc(N)c3Cl)c3nccn23)CC1 [4-((5-(4-amino-4-methylpiperidin-1-yl)imidazo[1,2-c]pyrimidin-8-yl)thio)-3-chloropyridin-2-amine] | 100 to 1000 nM | – |
| Nc1ccc(Sc2cnc(N3CCC4(CCC[C@H]4N)CC3)n3ccnc23)c(Cl)n1 [(R)-8-(8-((6-amino-2-chloropyridin-3-yl)thio)imidazo[1,2-c]pyrimidin-5-yl)-8-azaspiro[4.5]decan-1-amine] | < 100 nM | – |
| N[C@@H]1CCCC12CCN(c1ncc(Sc3ccccc3)c3nncn13)CC2 [(R)-8-(8-(phenylthio)-[1,2,4]triazolo[4,3-c]pyrimidin-5-yl)-8-azaspiro[4.5]decan-1-amine] | 1000 to 10000 nM | – |
| N[C@@H]1CCC2CN(c3ncc(Sc4cccc(Cl)c4Cl)c4nncn34)CC21 (stereo partly drawn) [(4R)-2-(8-((2,3-dichlorophenyl)thio)-[1,2,4]triazolo[4,3-c]pyrimidin-5-yl)octahydrocyclopenta[c]pyrrol-4-amine] | 1000 to 10000 nM | – |
| N[C@@H]1CCCC12CCN(c1ncc(Sc3ccncc3C(F)(F)F)c3ncnn13)CC2 [(R)-8-(8-((3-(trifluoromethyl)pyridin-4-yl)thio)-[1,2,4]triazolo[1,5-c]pyrimidin-5-yl)-8-azaspiro[4.5]decan-1-amine] | 1000 to 10000 nM | – |
| CN(C)C(=O)C(=O)Nc1cccc(Sc2cnc(N3CCC4(CCC[C@H]4N)CC3)n3ccnc23)c1Cl [listing 2 of 2 here] | 100 to 1000 nM | – |
| Cc1nc(N)cc(Sc2cnc(N3CCC4(CCC[C@H]4N)CC3)n3ccnc23)c1Cl | < 100 nM | – |
